How the values were obtained:
Format in all cases: cell-based, human
[1] = system: PAI-1 gene locus (exon 2); assay: Chromatin immunoprecipitation with anti-acetylated histone 4 antibody, PAI-1 exon 2; conditions: HepG2 cells; presence or absence of 10 ng/mL TGFβ for 30 minutes
Method: Confluent HepG2 cells in a 10 cm dish were stimulated in the presence or absence of 5 ng/ml of TGFβ1 for 3 hours. Thereafter, the cells were allowed to crosslink using 1% formaldehyde at room temperature for 10 minutes, and the crosslinking reaction was terminated with 0.125 M glycine. The cells were washed three times with cold PBS, and thereafter the cells were removed and collected. Further, the cells were sedimented by centrifugation, and lysed with a sodium dodecyl sulfate (SDS) lysis buffer (50 mM Tris/HCl [pH 8.0], 10 mM EDTA, and 0.5% SDS). The cell lysates were subjected to ultrasonication to shear DNA into DNA fragments having sizes of 200 to 1000 bp. Supernatant of the sheared chromatin was diluted with ChIP dilution buffer (16.7 mM Tris/HCl [pH 8.0], 167 mM NaCl, 1.2 mM EDTA, and 1.1% Triton X-100) containing a protease inhibitor and a phosphatase inhibitor, and precleared by adding salmon sperm DNA/protein A-agarose beads (Millipore, Billerica, Mass., USA). […]
Further, HepG2 cells transfected with control siRNA or GREB1 #2 siRNA were cultured in the presence or absence of 10 ng/mL of TGFβ for 30 minutes. […] Next, the exon 2 domain of PAI contained in the cell lysates (Input) and immunoprecipitates (IP) was analyzed by PCR using domain-specific primers.

[2] = system: Smad2/3; assay: Smad2/3 immunostaining and immunoprecipitation in HepG2 cells
Method: HepG2 cells (100 mm diameter dish) were lysed with 400 μl of a cell lysis buffer (10 mM Tris-HCl [pH 7.4], 140 mM NaCl, 5 mM EDTA, 1% NP40, 25 mM NaF, […], and 10 mM PMSF). The resulting lysate was immunoprecipitated with anti-Smad2/3 antibody, and the immunoprecipitates were probed with predetermined antibodies.
Further, HepG2 cells transfected with control siRNA or GREB1 #2 siRNA were cultured in the presence or absence of 10 ng/mL of TGFβ for 30 minutes. The cultured cells were fixed, and immunostained with anti-Smad2/3 antibody (see c of FIG. 8). Further, cell lysates of the cultured cells were immunoprecipitated with anti-Smad2/3 antibody. Next, the resulting cell lysates (Input) and immunoprecipitates (IP) were reacted with anti-Smad4 antibody or anti-Smad2/3 antibody (see d of FIG. 8). In addition, the cell lysates of the cultured cells were reacted with anti-GREB1 antibody, anti-phosphorylated Smad2/3 (pSmad2/3) antibody, or anti-Smad2/3 antibody (see e of FIG. 8).
Lysates of HepG2 cells transfected with control siRNA or GREB1 #2 siRNA were immunoprecipitated with anti-Smad2/3 antibody. Next, the resulting cell lysates (input) and immunoprecipitates (IP) were reacted with anti-p300 antibody, anti-GREB1 antibody, or anti-Smad2/3 antibody (see e of FIG. 7). […]

[3] = system: HepG2 cells; assay: mRNA (real-time PCR) and protein (lysate probing) expression in HepG2 cells
Method: Using RNAiMAX (Life Technologies/Thermo Fisher Scientific), HepG2 cells, Huh6 cells, Hep3B cells, JHH7 cells, and SKMEL28 cells were each transfected with each siRNA (10 nm). In experiments, the cells were used from 48 to 120 hours after transfection.

[4] = system: HepG2 cells; assay: Cell proliferation assay, two-dimensional culture (plastic dish), Cyquant
Method: Cells were seeded on a plate at 1.0×10^4 cells/mL, and, after 12 hours, the medium was replaced with a medium containing 10% serum. While the cell number was counted every 48 hours, the cells were cultured up to 10 days. The measurement of the cell number was performed using Cyquant NF assays (Life Technologies/Thermo Fisher Scientific) according to protocols recommended by the manufacturer.
Mock HepG2 cells (having a vector only, containing no GREB1) or GREB1-transduced HepG2 cells were transfected with control siRNA or two different types of siRNA (GREB1 #1 siRNA and GREB1 #2 siRNA), then two-dimensional culture (plastic dish culture) was performed, and a relative cell number was calculated by Cyquant assay overtime. As a result, in GREB1 knockdown, proliferative capacity of HepG2 cells in two-dimensional culture was reduced. However, when GREB1-transduced HepG2 cells were transfected with siRNAs against GREB1 (GREB1 #1 siRNA/GREB1 and GREB1 #2 siRNA/GREB1), the proliferative capacity of HepG2 cells was not affected (see a of FIG. 4).

**Q.** With “GREB1 #2 siRNA: siRNA against human GREB1; sense 5′-CCUCCUACAAAGCAAUAUUTT-3′ (SEQ ID NO: 6), antisense SEQ ID NO: 7 (antisense AAUAUUGCUUUGUAGGAGGTT; chemistry not given here)” as the substance, how does the “amount of acetylated histone 4 in the PAI-1 gene locus (exon 2)” value [1] read?
**A.** The value was “increased”.

**Q.** What about the “TGFβ-dependent nuclear transport of Smad2/3, complex formation of Smad2/3 and Smad4, phosphorylation of Smad2/3” value ([2]; 10 ng/mL TGFβ for 30 minutes) of the same substance?
**A.** Its value is “no effect”.

**Q.** And the “binding of Smad2/3 to p300” value ([2]; anti-Smad2/3 immunoprecipitation)?
**A.** The value was “increased”.

**Q.** And the “expression levels of PAI-1 and SNAIL2” value ([3]; HepG2/GFP cells, real-time PCR, n=3)?
**A.** Its value is “increased”.

**Q.** What about the “PAI-1 and SNAIL2 phenotypes of GREB1 knockdown” value ([3]; HepG2/GFP-GREB1 cells (expression of GFP-GREB1)) of the same substance?
**A.** Its value is “restored”.

**Q.** What about the “amounts of cleaved caspase 3 and PARP1” value ([3]; HepG2 cells, 0.1% FBS for 2 days, lysate probing) of the same substance?
**A.** The value was “increased”.

**Q.** What about the “expressions of β-catenin and Axin2” value ([3]; HepG2 cells, GREB1 knockdown, lysate probing) of the same substance?
**A.** The value was “no effect”.

**Q.** And the “expressions of PRLR and XBP1 (ER signal target genes)” value ([3]; HepG2 cells, GREB1 knockdown, real-time PCR)?
**A.** Its value is “no effect”.

**Q.** What about the “expression of cell cycle regulators cyclinA, cyclinB, phosphorylated histone H3” value ([3]; HepG2 cells, medium containing 1% FBS for 1 day, lysate probing) of the same substance?
**A.** The value was “decreases”.

**Q.** What about the “increases in mRNA levels of PAI-1 and SNAIL2 by knockdown of GREB1” value ([3]; HepG2 cells, presence or absence of TGFβ receptor inhibitor (ALK5 inhibitor)) of the same substance?
**A.** Its value is “TGFβ receptor signal dependent”.

**Q.** What about the “expressions of DLK1, AFP, and PEG3” value ([3]; HepG2 cells, real-time PCR) of the same substance?
**A.** Its value is “significantly decreased”.

**Q.** What about the “decrease in expression of AFP by knockdown of GREB1” value ([3]; Smad2/3 knockout HepG2 cells vs HepG2 cells, real-time PCR) of the same substance?
**A.** Its value is “restored”.

**Q.** And the “decrease in expression of DLK1 by knockdown of GREB1” value ([3]; effect of Smad2/3 knockout in HepG2 cells)?
**A.** Its value is “no effect”.

**Q.** What about the “proliferative capacity of HepG2 cells in two-dimensional culture” value ([4]; GREB1-transduced HepG2 cells) of the same substance?
**A.** Its value is “not affected”.

**Q.** What about the “proliferative capacity of HepG2 cells in two-dimensional culture” value ([4]; mock HepG2 cells, relative cell number by Cyquant over time) of the same substance?
**A.** The value was “reduced”.

Source: patent US20220249538A1, “TREATMENT AGENT FOR SEX HORMONE-INSENSITIVE GREB1-POSITIVE TUMORS” (OSAKA UNIVERSITY, priority 2019, published 2022)
